This is an account of results in patent publication US6525017B1, “Using glutathiane to protect neurons from injury” (The Children's Medical Center Corporation, priority 1989, dated 2003).

In test [1] the test system is NMDA receptors. As to conditions: 0.5-10 mM.
Test [2] deals with NMDA receptor. In words: NMDA-induced responses recorded in intact chick retina (eyecup, optic nerve DC potential). As to conditions: APV 100 μM. Type of test: cell-based. On the procedure:
Eyecups were obtained from 2-to 5-day-old chicks and continuously superfused at 20-25° C. at a rate of 8 ml/min with Tyrodes solution (130 mM NaCl, 3 mM KCl, 17 mM dextrose, 20 mM NaHCO3, 0.01% w/v phenol red; bubbled with a gas mixture of 95% O2 and 5% CO2) containing 5 mM MgCl2 to reduce synaptic activity. […] Traces were triggered by the opening of two solenoid valves that shunted approximately 200 μl of agonist (1, 1-dimethyl-4-phenyl-piperazinium iodide, DMPP or NMDA) into the perfusion line, Agonists reached the preparation approximately 7s later. […] Some experiments were performed in the presence of 10 μg/ml catalase and 1 μg/ml superoxide dismutase. Antagonists, reducing agents, or oxidizing agents were introduced directly via the perfusate.

The subject of test [3] is retinal ganglion cells. In words: Survival of retinal ganglion cells exposed to glutamate (NMDA neurotoxicity). The class given is cell-based, rat. As to conditions: for NMDA receptor-mediated neurotoxicity / neuronal cell injury: oxidized DTT produced from reduced DTT with DTNB. On the procedure:
To investigate the influence of redox modulation on NMDA neurotoxicity, survival of an identified central neuron, the retinal ganglion cell, was monitored for 12-24 hr after a brief (5-10 min.) exposure to DTT. To determine the degree of killing specifically related to activation of the NMDA receptor, APV at 200 μM was added to sibling cultures. APV-preventable, glutamate-induced death was increased 70±9% with DTT treatment.
Retinal ganglion cell neurons were labeled in situ, dissociated from the retina, and cultured as follows. Retinal ganglion cells from 7- to 12-day-old Long-Evans rats were labeled and enzymatically dissociated as described by Leifer et al., Science 224: 303, 1984. Following rinse of the dissociated retinal cells with a physiological saline based on Hanks' salts (composition in mM: NaCl, 137; NaHCO3, 1; Na2HPO4, 0.34; KCl, 5,36; KH2PO4, 0.44; CaCl2, 1.25, MgSO4, 0.5; MgCl2, 0.5; N-2-hydroxyethyl-piperazine-N′-2-ethanesulfonic acid (HEPES), 5; dextrose, 22.2; Phenol Red, 0.001% v/v; adjusted to pH 7.2 with 0.3 M NaOH), the cells were mechanically dispersed and aliquoted to treatment vials. These vials contained control saline solution, or saline solution with either 0.5-2 mM DTT, or 0.5 mM DTT in the presence of 1 mM DTNB. Treatment groups with DTNB were readjusted to pH 7.2 with 0.3 M NaOH. Cells were agitated gently over a 5-10 min period. After treatment, 100 μl volumes of the cell suspension were plated onto glass coverslips coated with poly-L-lysine in 35×10 mm tissue-culture dishes containing 2 ml of culture medium. The cell culture medium was based on Eagle's minimum essential medium (MEM), modified so that it was nominally free of magnesium and contained 10 mM CaCl2 to enhance NMDA receptor-mediated neuro-toxicity. The medium was also supplemented with methylcellulose 0.7% w/v, gentamicin 1 μg/ml, dextrose 16 mM, and rat serum 5% v/v. Glutamate levels in the culture medium were monitored by HPLC analysis. Concentrations of glutamate added to the medium of each experiment to induce cell killing averaged 10 μM (day to day variability in neuronal cell death was most probably due to slight variations in the amount of endogenous glutamate or a glutamate-like substance in these cultures). The 100 μl aliquots of cell suspension diluted into the 2 ml of MEM produced a final concentration of 50 μM Mg^2+, as well as levels of DTT and DTNB at 5% of their initial treatment concentrations. The cell cultures were incubated for 12-24 hours at 37° C. in an atmosphere of 5% CO2/95% humidified air. Neuronal survival was then scored by counting retinal ganglion cells displaying uptake and cleavage of fluorescein diacetate to fluorescein, as described by Hahn et al. Proc. Nat. Acad. Sci. USA 85:6556, 1988.
Experiments were conducted in triplicate and repeated on eleven separate days. In order to compare results obtained on different days, data were normalized such that the total number of surviving neurons in a given experiment divided by the number of treatment categories (i.e., 4) equalled 100.
Retinal cells were cultured as described in Example 1. In these experiments transient exposure to the reduced form of DTT (500 μM) occurred in the presence of DTNB (1 mM).

As to `N[C@@H](CCC(=O)N[C@@H](CS)C(=O)NCC(=O)O)C(=O)O` [reduced glutathione, glutathione], in test [1], the “protection against toxicity mediated at NMDA receptors” value is recorded as “can protect”.
For the compound `NC(CCCP(=O)(O)O)C(=O)O` (stereo not shown) [APV, 2-amino-5-phosphonovalerate], the “NMDA-induced responses in native and reduced states” value in test [2] was “blocked NMDA-induced responses”. The “vulnerability of neurons despite DTT treatment” value in test [3] (200 μM APV after DTT treatment) is “could be blocked”. Moreover, the “death of retinal ganglion cells exposed to glutamate in the culture medium” value in test [3] (APV 200 μM, DTT transient exposure, 12-24 hr) was “prevented the death”. For the same compound, the “neuronal survival compared to baseline” value in test [3] (DTT 500 μM in the presence of DTNB 1 mM, APV cultures P<0.01) is recorded as “significantly greater than baseline”.
Regarding `O[C@H]1CSSC[C@@H]1O` [oxidized DTT, oxidized dithiotheritol], the “NMDA receptor-mediated neurotoxicity / neuronal cell injury” value in test [3] is recorded as “does not effect neuronal cell injury”; in test [3] (listed as oxidized dithiotheritol (DTT)), “does not significantly affect”.
